Measurements published in the supplement of paper PMC10307832.

Columns and labels:
Experiment in all cases: relative viability (nuclei count vs DMSO), 5 days (fraction); higher = more cells survive
EKVX = tested on: EKVX
Outline: (§1)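 A single step with final 0.05% Triton X-100, 1% formaldehyde and 1 ug/ml Hoechst fixed the cells and stained nuclei 5 days after treatment. Lung cancer cell lines in 1536-well plates had been treated by pin tool the day after seeding with one drug alone or a fixed anchor-drug dose plus five library-drug doses (not always all listed) in √10 steps, and nuclei were counted on 4× images. Relative viability is the ratio of nuclei in treated wells to nuclei in vehicle wells, taken as the median of duplicate plates.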

HARA = tested on: HARA
Outline: as §1

HOP-62 = tested on: HOP-62
Outline: as §1

NCI-H1355 = tested on: NCI-H1355
Outline: as §1

NCI-H1395 = tested on: NCI-H1395
Outline: as §1

NCI-H1734 = tested on: NCI-H1734
Outline: as §1

NCI-H1755 = tested on: NCI-H1755
Outline: as §1

NCI-H1793 = tested on: NCI-H1793
Outline: as §1

NCI-H1993 = tested on: NCI-H1993
Outline: as §1

NCI-H2170 = tested on: NCI-H2170
Outline: as §1

NCI-H2342 = tested on: NCI-H2342
Outline: as §1

NCI-H2347 = tested on: NCI-H2347
Outline: as §1

NCI-H322M = tested on: NCI-H322M
Outline: as §1

NCI-H358 = tested on: NCI-H358
Outline: as §1

NCI-H522 = tested on: NCI-H522
Outline: as §1

NCI-H647 = tested on: NCI-H647
Outline: as §1

NCI-H838 = tested on: NCI-H838
Outline: as §1

PC-14 = tested on: PC-14
Outline: as §1

C[C@@H]1CN(CC(=O)Nc2ccc3c(c2)Cc2cccc(-c4cc(=O)cc(N5CCOCC5)o4)c2S3)C[C@H](C)O1 + NC(=O)Nc1cc(-c2cccc(F)c2)sc1C(=O)N[C@H]1CCCNC1 [AZD7762] (partner 0.2 µM)
relative viability (EKVX; first compound 0.04 µM): 0.651 | relative viability (EKVX; first compound 0.1265 µM): 0.751 | relative viability (EKVX; first compound 0.4 µM): 0.713 | relative viability (EKVX; first compound 4 µM): 0.562 | relative viability (HARA; first compound 0.04 µM): 0.296 | relative viability (HARA; first compound 0.1265 µM): 0.259 | relative viability (HARA; first compound 0.4 µM): 0.227 | relative viability (HARA; first compound 4 µM): 0.329 | relative viability (HOP-62; first compound 0.04 µM): 0.445 | relative viability (HOP-62; first compound 0.1265 µM): 0.599 | relative viability (HOP-62; first compound 0.4 µM): 0.739 | relative viability (HOP-62; first compound 4 µM): 0.624 | relative viability (NCI-H1355; first compound 0.04 µM): 0.799 | relative viability (NCI-H1355; first compound 0.1265 µM): 0.682 | relative viability (NCI-H1355; first compound 0.4 µM): 0.671 | relative viability (NCI-H1355; first compound 4 µM): 0.62 | relative viability (NCI-H1395; first compound 0.1265 µM): 0.425 | relative viability (NCI-H1395; first compound 0.4 µM): 0.411 | relative viability (NCI-H1395; first compound 4 µM): 0.406 | relative viability (NCI-H1734; first compound 0.04 µM): 0.569 | relative viability (NCI-H1734; first compound 0.1265 µM): 0.684 | relative viability (NCI-H1734; first compound 0.4 µM): 0.643 | relative viability (NCI-H1734; first compound 4 µM): 0.634 | relative viability (NCI-H1755; first compound 0.04 µM): 0.422 | relative viability (NCI-H1755; first compound 0.1265 µM): 0.44 | relative viability (NCI-H1755; first compound 0.4 µM): 0.494 | relative viability (NCI-H1755; first compound 4 µM): 0.445 | relative viability (NCI-H1793; first compound 0.04 µM): 0.588 | relative viability (NCI-H1793; first compound 0.1265 µM): 0.514 | relative viability (NCI-H1793; first compound 0.4 µM): 0.404 | relative viability (NCI-H1793; first compound 4 µM): 0.25 | relative viability (NCI-H1993; first compound 0.04 µM): 0.752 | relative viability (NCI-H1993; first compound 0.1265 µM): 0.737 | relative viability (NCI-H1993; first compound 0.4 µM): 0.611 | relative viability (NCI-H1993; first compound 4 µM): 0.55 | relative viability (NCI-H2170; first compound 0.04 µM): 0.95 | relative viability (NCI-H2170; first compound 0.1265 µM): 0.807 | relative viability (NCI-H2170; first compound 0.4 µM): 0.812 | relative viability (NCI-H2170; first compound 4 µM): 0.633 | relative viability (NCI-H2342; first compound 0.04 µM): 0.499 | relative viability (NCI-H2342; first compound 0.1265 µM): 0.495 | relative viability (NCI-H2342; first compound 0.4 µM): 0.492 | relative viability (NCI-H2342; first compound 4 µM): 0.441 | relative viability (NCI-H2347; first compound 0.04 µM): 0.811 | relative viability (NCI-H2347; first compound 0.1265 µM): 0.913 | relative viability (NCI-H2347; first compound 0.4 µM): 0.625 | relative viability (NCI-H2347; first compound 4 µM): 0.611 | relative viability (NCI-H322M; first compound 0.04 µM): 0.527 | relative viability (NCI-H322M; first compound 0.1265 µM): 0.546 | relative viability (NCI-H322M; first compound 0.4 µM): 0.702 | relative viability (NCI-H322M; first compound 4 µM): 0.56 | relative viability (NCI-H358; first compound 0.04 µM): 0.463 | relative viability (NCI-H358; first compound 0.1265 µM): 0.416 | relative viability (NCI-H358; first compound 0.4 µM): 0.539 | relative viability (NCI-H358; first compound 4 µM): 0.365 | relative viability (NCI-H522; first compound 0.04 µM): 0.526 | relative viability (NCI-H522; first compound 0.1265 µM): 0.743 | relative viability (NCI-H522; first compound 0.4 µM): 0.908 | relative viability (NCI-H522; first compound 4 µM): 0.814 | relative viability (NCI-H647; first compound 0.04 µM): 0.346 | relative viability (NCI-H647; first compound 0.1265 µM): 0.46 | relative viability (NCI-H647; first compound 0.4 µM): 0.515 | relative viability (NCI-H647; first compound 4 µM): 0.309 | relative viability (NCI-H838; first compound 0.04 µM): 0.802 | relative viability (NCI-H838; first compound 0.1265 µM): 0.909 | relative viability (NCI-H838; first compound 0.4 µM): 0.992 | relative viability (NCI-H838; first compound 4 µM): 0.861 | relative viability (PC-14; first compound 0.04 µM): 0.289 | relative viability (PC-14; first compound 0.1265 µM): 0.308 | relative viability (PC-14; first compound 0.4 µM): 0.32 | relative viability (PC-14; first compound 4 µM): 0.276

CC(C)Oc1cc(Nc2nc(N[C@@H](C)c3ccc(F)cn3)ncc2Cl)n[nH]1 [AZ23] + NC(=O)Nc1cc(-c2cccc(F)c2)sc1C(=O)N[C@H]1CCCNC1 [AZD7762] (partner 0.2 µM)
relative viability (EKVX; first compound 0.01 µM): 0.625 | relative viability (EKVX; first compound 0.03162 µM): 0.837 | relative viability (EKVX; first compound 0.3162 µM): 0.676 | relative viability (HARA; first compound 0.01 µM): 0.252 | relative viability (HARA; first compound 0.03162 µM): 0.485 | relative viability (HARA; first compound 0.3162 µM): 0.534 | relative viability (HOP-62; first compound 0.01 µM): 0.493 | relative viability (HOP-62; first compound 0.03162 µM): 0.804 | relative viability (HOP-62; first compound 0.3162 µM): 0.863 | relative viability (NCI-H1355; first compound 0.01 µM): 0.711 | relative viability (NCI-H1355; first compound 0.03162 µM): 0.808 | relative viability (NCI-H1355; first compound 0.3162 µM): 0.916 | relative viability (NCI-H1395; first compound 0.03162 µM): 0.375 | relative viability (NCI-H1395; first compound 0.3162 µM): 0.432 | relative viability (NCI-H1734; first compound 0.01 µM): 0.602 | relative viability (NCI-H1734; first compound 0.03162 µM): 0.688 | relative viability (NCI-H1734; first compound 0.3162 µM): 0.795 | relative viability (NCI-H1755; first compound 0.01 µM): 0.413 | relative viability (NCI-H1755; first compound 0.03162 µM): 0.471 | relative viability (NCI-H1755; first compound 0.3162 µM): 0.477 | relative viability (NCI-H1793; first compound 0.01 µM): 0.361 | relative viability (NCI-H1793; first compound 0.03162 µM): 0.498 | relative viability (NCI-H1793; first compound 0.3162 µM): 1.3 | relative viability (NCI-H1993; first compound 0.01 µM): 0.703 | relative viability (NCI-H1993; first compound 0.03162 µM): 0.749 | relative viability (NCI-H1993; first compound 0.3162 µM): 0.965 | relative viability (NCI-H2170; first compound 0.01 µM): 0.885 | relative viability (NCI-H2170; first compound 0.03162 µM): 0.887 | relative viability (NCI-H2170; first compound 0.3162 µM): 1.06 | relative viability (NCI-H2342; first compound 0.01 µM): 0.442 | relative viability (NCI-H2342; first compound 0.03162 µM): 0.569 | relative viability (NCI-H2342; first compound 0.3162 µM): 0.483 | relative viability (NCI-H2347; first compound 0.01 µM): 0.718 | relative viability (NCI-H2347; first compound 0.03162 µM): 0.818 | relative viability (NCI-H2347; first compound 0.3162 µM): 0.782 | relative viability (NCI-H322M; first compound 0.01 µM): 0.468 | relative viability (NCI-H322M; first compound 0.03162 µM): 0.527 | relative viability (NCI-H322M; first compound 0.3162 µM): 0.614 | relative viability (NCI-H358; first compound 0.01 µM): 0.447 | relative viability (NCI-H358; first compound 0.03162 µM): 0.653 | relative viability (NCI-H358; first compound 0.3162 µM): 0.514 | relative viability (NCI-H522; first compound 0.01 µM): 0.935 | relative viability (NCI-H522; first compound 0.03162 µM): 0.95 | relative viability (NCI-H522; first compound 0.3162 µM): 0.809 | relative viability (NCI-H647; first compound 0.01 µM): 0.296 | relative viability (NCI-H647; first compound 0.03162 µM): 0.615 | relative viability (NCI-H647; first compound 0.3162 µM): 0.806 | relative viability (NCI-H838; first compound 0.01 µM): 0.934 | relative viability (NCI-H838; first compound 0.03162 µM): 1.05 | relative viability (NCI-H838; first compound 0.3162 µM): 0.991 | relative viability (PC-14; first compound 0.01 µM): 0.326 | relative viability (PC-14; first compound 0.03162 µM): 0.339 | relative viability (PC-14; first compound 0.3162 µM): 0.375
